Source: patent US20180360786A1, “(R)-CARBIDOPA ALONE OR IN COMBINATION WITH A STEROID FOR TREATING PAIN, INFLAMMATION, AN INFLAMMATORY DISEASE, AN IMMUNE OR AUTOIMMUNE DISEASE AND TUMOUR GROWTH” (PROXIMAGEN GROUP LIMITED, priority 2015, published 2018)
pIC50: −log10 of the molar value. Like-named read-outs stand apart in the source and are kept apart here.

Legend:
[1] = biological target: T1, human VAP-1 (SSAO) (Homo sapiens, UniProt Q16853); test: In vitro determination of human VAP-1 (SSAO) inhibition (HRP-coupled Amplex Red, benzylamine substrate); format: biochemical; settings: for pIC50: purified recombinant human VAP-1 (SSAO), benzylamine 100 μM, room temperature, about 15 min pre-incubation
T1 construct: made in house
T1 sequence (Q16853 29-763 limits assumed): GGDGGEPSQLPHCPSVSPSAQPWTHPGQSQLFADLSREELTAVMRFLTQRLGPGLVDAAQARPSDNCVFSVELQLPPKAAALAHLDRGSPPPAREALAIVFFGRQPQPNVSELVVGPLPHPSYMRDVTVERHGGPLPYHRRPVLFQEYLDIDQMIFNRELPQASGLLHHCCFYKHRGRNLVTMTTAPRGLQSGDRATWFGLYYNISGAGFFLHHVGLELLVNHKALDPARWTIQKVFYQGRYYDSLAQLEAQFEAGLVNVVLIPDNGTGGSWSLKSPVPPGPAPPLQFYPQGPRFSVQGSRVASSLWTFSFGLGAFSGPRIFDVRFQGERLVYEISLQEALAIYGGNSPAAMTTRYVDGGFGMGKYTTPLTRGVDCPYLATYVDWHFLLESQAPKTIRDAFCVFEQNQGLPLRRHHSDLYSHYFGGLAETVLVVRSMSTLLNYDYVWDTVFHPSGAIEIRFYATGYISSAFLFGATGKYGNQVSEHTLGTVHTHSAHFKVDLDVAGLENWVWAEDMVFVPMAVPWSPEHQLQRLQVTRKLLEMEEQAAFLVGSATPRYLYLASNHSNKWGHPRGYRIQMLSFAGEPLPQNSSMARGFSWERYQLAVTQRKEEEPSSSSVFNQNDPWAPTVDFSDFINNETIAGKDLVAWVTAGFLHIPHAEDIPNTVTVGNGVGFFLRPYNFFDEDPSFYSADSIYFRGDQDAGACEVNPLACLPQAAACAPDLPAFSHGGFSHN
Protocol: This assay is performed at room temperature with purified recombinantly expressed human VAP-1 (SSAO). Enzyme was prepared essentially as described in Ohman et al. (Protein Expression and Purification 46 (2006) 321-331). The enzyme activity is assayed with benzylamine as substrate by utilizing the production of hydrogen peroxide in a horseradish peroxidise (HRP) coupled reaction. Briefly, test compounds are dissolved in dimethyl sulfoxide (DMSO) to a concentration of 10 mM. Dose-response measurements are assayed by either creating 1:10 serial dilutions in DMSO to produce a 7 point curve or by making 1:3 serial dilutions in DMSO to produce 11 point curves. The top concentrations are adjusted depending on the potency of the compounds and subsequent dilution in reaction buffer yielded a final DMSO concentration ≤2%.
In a horseradish peroxidise (HRP) coupled reaction, hydrogen peroxide oxidation of 10-acetyl-3,7-dihydroxyphenoxazine produces resorufin, which is a highly fluorescent compound (Zhout and Panchuk-Voloshina. Analytical Biochemistry 253 (1997) 169-174; AmplexR Red Hydrogen Peroxide/peroxidise Assay kit, Invitrogen A22188). Enzyme and compounds in 50 mM sodium phosphate, pH 7.4 are set to pre-incubate in flat-bottomed microtiter plates for approximately 15 minutes before initiating the reaction by addition of a mixture of HRP, benzylamine and Amplex reagent. Benzylamine concentration is fixed at a concentration corresponding to the Michaelis constant, determined using standard procedures. Fluorescence intensity is then measured at several time points during 1-2 hours, exciting at 544 nm and reading the emission at 590 nm. […] The inhibition is measured as % decrease of the signal compared to a control without inhibitor (only diluted DMSO). […] Data is fitted to a four parameter logistic model and IC50 values are calculated, for example by using the GraphPad Prism 4 or XLfit 4 programs.

[2] = biological target: T2, human aromatic L-amino acid decarboxylase (DOPA decarboxylase) (Homo sapiens, UniProt P20711); test: In vitro determination of human aromatic L-amino acid decarboxylase (DOPA decarboxylase) inhibition; format: biochemical; settings: recombinant human DOPA decarboxylase, 500 μM L-Dopa, 60 min pre-incubation
T2 construct: purchased R&D systems 3564-DC
T2 sequence (P20711 1-480): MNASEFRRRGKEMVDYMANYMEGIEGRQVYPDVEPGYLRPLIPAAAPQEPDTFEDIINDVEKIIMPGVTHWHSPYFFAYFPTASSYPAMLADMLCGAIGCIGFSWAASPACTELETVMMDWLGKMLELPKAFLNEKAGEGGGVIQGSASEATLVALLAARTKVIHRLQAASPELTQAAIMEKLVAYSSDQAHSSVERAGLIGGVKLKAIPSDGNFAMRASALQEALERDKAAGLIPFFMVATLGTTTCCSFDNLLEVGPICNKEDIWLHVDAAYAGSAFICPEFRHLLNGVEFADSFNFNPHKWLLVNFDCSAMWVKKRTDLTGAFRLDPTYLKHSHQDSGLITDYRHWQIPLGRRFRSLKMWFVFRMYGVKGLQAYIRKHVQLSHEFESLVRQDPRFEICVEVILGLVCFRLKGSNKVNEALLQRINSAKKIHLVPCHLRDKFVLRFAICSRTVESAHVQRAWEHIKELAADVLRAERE
Protocol: The enzyme reaction of human DOPA decarboxylase was carried out according to the manufacture instructions (R&D systems cat#3564-DC). The assay measured the ability of recombinant human DOPA decarboxylase to convert L-Dopa to dopamine. The dopamine product was measured by its absorbance at 340 nm after derivatization with trinitrobenzene sulphuric acid. Briefly, the reaction was carried out in 50 mM HEPES buffer containing 100 mM NaCl pH 7.2 for 30 min and stopped by inactivation of the enzyme at 95° C. for 2 min. The inhibitory assay was performed by measuring the decarboxylase activity of DOPA decarboxylase with 0.8 μg enzyme, 500 μM L-Dopa, and 100 μM pyridoxal phosphate in the presence or absence of a fixed amount of each compound. Test compounds were pre-incubated for 60 min with DOPA decarboxylase before initiating the assay with the addition of the substrate L-DOPA. Dose response curves were generated to determine the concentration required to inhibit 50% of decarboxylase activity (IC50). Compounds were evaluated in duplicate at 7 concentrations. IC50 values were derived by nonlinear regression analysis.

[3] = system: CFA induced hypersensitivity; test: CFA induced hypersensitivity in rat, weight bearing (incapacitance tester); format: in vivo; settings: dosed 24 hours post CFA, 1 and 3 hours post treatment
Protocol: (§1) Assessment of the anti-hyperalgesic properties of (R)-Carbidopa was determined through measurement of weight bearing following CFA induced hypersensitivity. Naive rats distribute their body weight equally between the two hind paws. However, when the injected (left) hind paw is painful, the weight is re-distributed so that less weight is put on the affected paw (decrease in weight bearing on injured paw). Weight bearing through each hind limb was measured using a rat incapacitance tester (Linton Instruments, UK). Rats were placed in the incapacitance tester with the hind paws on separate sensors and the average force exerted by both hind limbs was recorded over 4 seconds. The injection of CFA also induces an oedema that can be assessed by paw volume; this is measured using a plethysmometer. The rat's hind paw is placed into the cylinder containing a solution and the volume of displaced liquid determines the paw volume. Naive male, Sprague Dawley rats were acclimatised with food and water available ad libitum. Habituation to the incapacitance tester was performed. Baseline weight bearing and paw volume recordings were taken prior to induction of insult. Inflammatory hypersensitivity was induced by intraplantar injection of CFA (100 μl of 1 mg/ml solution) into the left hind paw. A pre-treatment weight bearing and paw volume measurement was taken to assess hypersensitivity 23 hours post-CFA. Animals were then ranked and randomised according to CFA window in a Latin square design. […] Data were analysed by comparing treatment groups to the vehicle control group at each time point. Weight bearing (g) readings were taken for both right and left hind paws and the difference calculated. Data is expressed as % reversal of the hypersensitivity to pain. Paw Volume (mL) readings were taken for the left hind paws. Data are expressed as % reversal of the oedema. Calculation: (post dose reading−pre dose reading)/(naïve reading−pre dose reading)×100, where naive weight bearing difference−pre dose weight bearing difference is defined as the CFA window to be reversed. […]

[4] = system: CFA induced paw oedema; test: CFA induced paw oedema in rat, paw volume (plethysmometer); format: in vivo; settings: dosed 24 hours post CFA, 3 hours post treatment
Protocol: as §1, with “plethysmometer.” for “plethysmometer. The rat's hind paw is placed into the cylinder containing a solution and the volume of displaced liquid determines the paw volume. Naive male, Sprague Dawley rats were acclimatised with food and water available ad libitum. Habituation to the incapacitance tester was performed. Baseline weight bearing and paw volume recordings were taken prior to induction of insult. Inflammatory hypersensitivity was induced by intraplantar injection of CFA (100 μl of 1 mg/ml solution) into the left hind paw. A pre-treatment weight bearing and paw volume measurement was taken to assess hypersensitivity 23 hours post-CFA. Animals were then ranked and randomised according to CFA window in a Latin square design.”

C[C@](Cc1ccc(O)c(O)c1)(NN)C(=O)O (single isomer, unassigned) [(S)-Carbidopa]
pIC50 [1]: 6.85
pIC50 ([2]; read-out: IC50 for inhibition of human aromatic L-amino acid decarboxylase): 6.72

C[C@](Cc1ccc(O)c(O)c1)(NN)C(=O)O [(R)-Carbidopa, (R)-carbidopa]
selectivity for SSAO/VAP-1 over the enzyme DOPA decarboxylase ([1]; comparison of VAP-1 and DOPA decarboxylase inhibition): surprising selectivity
pIC50 [1]: 6.83
pIC50 ([2]; did not inhibit up to the maximum concentration tested, read-out: inhibition of human aromatic L-amino acid decarboxylase (IC50)): < 5.52
inhibition of the hypersensitivity response (weight bearing), Part A, FIG. 1 ([3]; 3-30 mg/kg alone): dose-dependently inhibited the hypersensitivity response
reduction of paw volume (oedema), Part A, FIG. 2 ([4]; 3-30 mg/kg alone): significant reduction of paw volume

COc1ccc2c(c1)c(CC(=O)O)c(C)n2C(=O)c1ccc(Cl)cc1 [Indomethacin, indomethacin]
reversal of the hypersensitivity measured using weight bearing ([3]; indomethacin 10 mg/kg): marked reversal of the hypersensitivity
reduction of paw oedema ([4]; indomethacin 10 mg/kg): significant reduction on paw oedema

C[C@]12C=CC(=O)C=C1CC[C@@H]1[C@@H]2[C@@H](O)C[C@@]2(C)[C@H]1CC[C@]2(O)C(=O)CO [Prednisolone, prednisolone]
inhibition of the hypersensitivity response (weight bearing), Part B, FIG. 3 ([3]; 0.3-10 mg/kg alone): dose-dependently inhibited the hypersensitivity response
